Reference: patent EP2440179B1, “CHITOSAN OLIGOSACCHARIDE-BASED COMPOSITIONS” (Teslenko, Alexander, priority 2009, dated 2010)

Key:
Walker-Carciosarcom [1] = test: Photodynamic therapy in tumour-bearing rats: histological/cytological examination of tumour necrosis; assay type: in vivo, Ratten
Source text: Der Nachweis der therapeutischen Wirkung von COS-ALA-Addukten erfolgte an insgesamt 60 Ratten mit einem Walker-Carciosarcom (30 Verum- und 30 Kontrolltiere). Die Tumore waren den Tieren implantiert worden, die photodynamische Therapie mit COS-ALA wurde durchgeführt, wenn die Tumoren eine Große von 1 cm^3 erreicht hatten.
Zur Behandlung diente eine Lampe "[sequence]" (Galdena AG, Frankfurt/M.) mit monochromatischem Licht der Wellenlänge λ = 634 nm. Die Bestrahlungsdosis betrug 37 J/cm^2, die mittlere Energie 8,5 W. Die behandelten Gruppen bestanden aus jeweils 6 Tieren, die nach 1, 2, 3, 5, 6 und 24 Stunden sowie 2 Wochen untersucht wurden. Dazu wurden die Tiere getötet, die Tumore exstirpiert und deren Gewicht und Größe gemessen. Für histologische Untersuchungen wurde Gewebe in 10 %iger Formalinlösung fixiert.

Walker-Carciosarcom [2] = test: Photodynamic therapy in tumour-bearing rats: malondialdehyde in tumour homogenate (2-thiobarbituric acid); assay type: in vivo, Ratten; settings: marker of oxidative stress
Source text: Der Nachweis der therapeutischen Wirkung von COS-ALA-Addukten erfolgte an insgesamt 60 Ratten mit einem Walker-Carciosarcom (30 Verum- und 30 Kontrolltiere). Die Tumore […] worden, die photodynamische Therapie mit COS-ALA wurde durchgeführt, wenn die Tumoren eine Große von 1 cm^3 erreicht hatten. Zur Behandlung […], Frankfurt/M.) mit monochromatischem […] λ = 634 nm. Die Bestrahlungsdosis betrug 37 J/cm^2, die […]. […] Dazu wurden die Tiere getötet, die Tumore […] und deren Gewicht und […] histologische Untersuchungen wurde Gewebe in 10 %iger Formalinlösung fixiert. Zur Bestimung des oxidativen Stress in den Tumorhomogenisaten diente der Gehalt an Malondialdehyd, der mit Hilfe der 2-Thiobarbitursäure bestimmt wurde.

[3] = assay type: in vitro ADME, Schwein; settings: mean of 4 treated pig skins, after 2 Stunden Applikation
Procedure: Schweineohren wurden ohne Hautverletzungen sofort nach der Schlachtung aus einem Schlachthof abgeholt. Die Ohren wurden gründlich mit milder Seife abgewaschen. Unmittelbar danach wurde die subkutane Fettschicht mit dem Skalpell abgetrennt. Die Haut wurde in einem Container bei -20°C für weitere Untersuchungen aufbewahrt. Die Trennung der Epidermis von der Dermis erfolgte vorsichtig nach Erwärmung bei 60°C (1 Minute).
Die Eindringtiefe von COS-Salicylat wurde im Rahmen eines Schälverfahrens an einer Modellhaut bestimmt. Die 10%-ige COS-Salicylat-Lösung wurde auf die Hautoberfläche der Ohren aufgetragen und etwa 1 bis 2 Minuten in die Haut einmassiert. Währenddessen wurden die Ohren bei 35 °C temperiert.
Für die Schälung wurden 15 Tesafilmstreifen (Typ Tesa® Office, Beiersdorf, DE) auf eine Größe von 1,5 cm * 1,5 cm geschnitten und ausgewogen. Die auf dem Schweineohr ausgewählten Untersuchungsfelder von 2 cm * 2 cm wurden nacheinander mit den vorbereiteten Tesafilm-Streifen beklebt und danach abgezogen.
Die Streifen wurden mit Acetonitril bei 60°C im Laufe von 60 Minuten extrahiert. Die Lösungen wurden durch 0,5 µm-Membranen filtriert und mit Hilfe von HPLC analysiert.
Das Shimadzu LC-20A HPLC-System bestand aus einer Spherisorb S5 ODS2-Säule (Waters Co) und UV-Detektor. Mobile Phase war Wasser-Methanol-Acetonitril-Essigsaure. Tabelle 2: Mittelwerte der Wiederfindung aus 4 behandelten Schweinehäuten des COS-Salicylat (aus Beispiel 1) und Salicylsäure in einzelnen Hautschichten nach 2 Stunden Applikation.
Der Gehalt von COS-Salicylat in Epidermis und Dermis wurde mit Hilfe einer Franz-Zelle bestimmt.

Row | Compound | Nekrose in der Mitte des Tumorgewebes zu sehen nach (Walker-Carciosarcom [1]; time until necrosis is seen) [Stunden] | Nekrose verbreitet sich auf das ganze Tumorgewebe nach (Walker-Carciosarcom [1]; time until necrosis of the whole tumour) [Wochen] | Malondialdehyd (Walker-Carciosarcom [2]; Zeit nach PDT 1 h) | Malondialdehyd (Walker-Carciosarcom [2]; Zeit nach PDT 2 h) | Malondialdehyd (Walker-Carciosarcom [2]; Zeit nach PDT 3 h) | Malondialdehyd (Walker-Carciosarcom [2]; Zeit nach PDT 5 h) | Malondialdehyd (Walker-Carciosarcom [2]; Zeit nach PDT 6 h) | Malondialdehyd (Walker-Carciosarcom [2]; Zeit nach PDT 24 h) | Wiederfindung, Verteilung in Dermis [3] | Wiederfindung, Verteilung in Epidermis [3] | Wiederfindung, Verteilung in Hornschicht [3]
1 | 5-Aminolävulinsäure [ALA] | 72 | 2 | 0,25 nmol/mL | 0,42 nmol/mL | 0,47 nmol/mL | 0,55 nmol/mL | 0,61 nmol/mL | 0,75 nmol/mL | – | – | –
2 | O=C(O)c1ccccc1O [Salicylsäure] | – | – | – | – | – | – | – | – | 1,0 ± 0,15 µg/cm^2 | 2,1 ± 0,2 µg/cm^2 | 5,3 ± 0,4 µg/cm^2
